Reference: paper PMC2884014 (Biochemistry, 2010)
Like-named read-outs stand apart in the source and are kept apart here.

What was measured:
Assay type in all cases: biochemical
[1] = biological target: T1, MurA (UDP-N-acetylglucosamine 1-carboxyvinyltransferase) (Enterobacter cloacae, UniProt P33038); assay: crystal structure at […] Å
[2] = biological target: MurA (UDP-N-acetylglucosamine 1-carboxyvinyltransferase) (Escherichia coli, UniProt P0A749); assay: malachite green assay of residual MurA activity
[3] = biological target: T1, MurA (UDP-N-acetylglucosamine 1-carboxyvinyltransferase); assay: crystal structure at […] Å; remark: listed apart in the source

T1 sequence (P33038 whole entry): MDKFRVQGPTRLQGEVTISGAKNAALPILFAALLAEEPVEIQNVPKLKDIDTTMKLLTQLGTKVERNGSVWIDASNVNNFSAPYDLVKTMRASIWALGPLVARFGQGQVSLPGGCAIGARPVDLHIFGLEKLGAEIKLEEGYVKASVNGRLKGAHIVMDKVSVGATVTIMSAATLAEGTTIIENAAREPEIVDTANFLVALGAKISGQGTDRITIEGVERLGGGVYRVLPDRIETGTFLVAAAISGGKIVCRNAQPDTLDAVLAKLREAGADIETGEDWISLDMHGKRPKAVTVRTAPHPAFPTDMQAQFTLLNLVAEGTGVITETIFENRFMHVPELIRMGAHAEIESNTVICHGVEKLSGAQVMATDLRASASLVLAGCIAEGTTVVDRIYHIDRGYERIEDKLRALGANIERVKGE
Chain of MurA (UDP-N-acetylglucosamine 1-carboxyvinyltransferase) (Escherichia coli, UniProt P0A749) (P0A749 whole entry): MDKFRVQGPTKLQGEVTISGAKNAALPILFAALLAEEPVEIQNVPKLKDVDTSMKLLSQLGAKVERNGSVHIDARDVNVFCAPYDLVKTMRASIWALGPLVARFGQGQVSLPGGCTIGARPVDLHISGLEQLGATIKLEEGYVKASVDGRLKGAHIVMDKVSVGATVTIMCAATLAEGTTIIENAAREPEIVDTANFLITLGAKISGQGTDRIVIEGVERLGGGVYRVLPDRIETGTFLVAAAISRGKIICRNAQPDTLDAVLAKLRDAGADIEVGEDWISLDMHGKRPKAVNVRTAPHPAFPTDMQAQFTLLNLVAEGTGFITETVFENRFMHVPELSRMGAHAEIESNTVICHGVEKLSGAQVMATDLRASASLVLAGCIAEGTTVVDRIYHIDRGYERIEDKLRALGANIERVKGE

CC1=C(O)C(=O)[C@@H]2O[C@@H]2C1=O [terreic acid]
IC50 [1]: 14 ± 0.6 µM
malachite green assay of residual MurA activity [2]: terreic acid is a covalent inhibitor of the bacterial cell wall biosynthetic enzyme MurA from E. cloacae and E. coli in-vitro

C[C@@H]1O[C@@H]1P(=O)(O)O [fosfomycin, (1R,2S)-1,2-epoxypropyl phosphonic acid]
IC50 [3]: 0.25 ± 0.01 µM
